Values quoted from earlier work, collected in publication PMC3925743 (Journal of controlled release : official journal of the …, 2013).

Tested on: prostate cancer LNCaP cells

protamine
delivery of siRNA into cells: cannot deliver siRNA
